In patent US20180311194A1, “APPLICATION OF TRANILAST IN PREPARATION OF DRUG TREATING SCLEREDEMA DIABETICORUM” (THE FIRST AFFILIATED HOSPITAL OF NANJING MEDICAL UNIVERSITY, priority 2016, published 2018):

How the values were obtained:
[1] = tested on: patients with scleredema diabeticorum; test: Clinical oral treatment of patients with scleredema diabeticorum, skin thickness by B-ultrasound; assay type: in vivo, human; conditions: for skin thickness measured by B-ultrasound: back skin
From the text: FIG. 1 is a B-ultrasonography of a patient before medication (a and b are different parts of the affected skin).
1. Mode of administration: oral, tranilast 0.1 g, 3 times a day, every 3 months for a course of treatment, a total of two courses.

fibroblast = test: Secretion and synthesis of mucin by fibroblast; assay type: cell-based; conditions: initially found
type I collagen mRNA = conditions: human dermal fibroblasts; cited from earlier work
[2] = tested on: IgE antibody-induced cutaneous anaphylaxis; conditions: rats; cited from earlier work
experimental asthma = conditions: rats; cited from earlier work
[3] = 3 patients, tranilast capsule 0.1, 3 times a day orally, after 3 months
[4] = patients with scleredema diabeticorum, after 3 months of application

COc1ccc(/C=C/C(=O)Nc2ccccc2C(=O)O)cc1OC [tranilast]
local skin erythema [1, 3]: subsided significantly
uncomfortable symptom of conscious hardening [1, 3]: significantly relieved
therapeutic effect on scleredema diabeticorum ([1]; clinical results): good therapeutic effect
skin thickness measured by B-ultrasound ([1]; patient Example 1, person, after 3 months of oral administration, before 6.5 mm): 6 mm
skin thickness measured by B-ultrasound ([1]; patient Example 2, person, 0.1 three times a day, after 3 months, before 8 mm): 6 mm
skin thickness measured by B-ultrasound ([1]; patient Example 3, person, 0.1 three times a day, after 3 months, before 8.5 mm): 5.9 mm
thickness of the surrounding skin (B-ultrasonography) ([1]; patient, after 3 months of medication, before medication 3.6 mm): 3.0 mm
thickness of the thickest part of skin on the right side (back of the neck, B-ultrasonography) ([1]; patient, after 3 months of medication, before medication about 7.5 mm): about 6.3 mm
thickness of the thickest part of the skin on the left side (back of the neck, B-ultrasonography) ([1]; patient, after 3 months of medication, before medication about 8.7 mm): about 6.8 mm
reduction of maximum skin thickness (B-ultrasound) ([1]; patient, after 3 months of treatment, before treatment 7.8 to 8.7 mm): 2 mm
adverse reactions [1, 4]: no significant adverse reactions were observed
symptoms in clinical practice [1, 4]: significantly relieved
thickness of the skin detected by B-ultrasound [1, 4]: significantly thinner
skin change in further treated cases ([1]; several further cases): skin thinning
blood routine examination, routine urine examination, and biochemical detection ([1]; tranilast capsule 0.1, 3 times a day orally, 3 months): no obvious abnormalities
secretion and synthesis of mucin by fibroblast (fibroblast): inhibiting
TGF-β-induced upregulation of type I collagen mRNA expression and basal level of type I collagen mRNA (type I collagen mRNA): able to suppress
effect on IgE antibody-induced cutaneous anaphylaxis [2]: significant inhibitory effect
effect on experimental asthma (experimental asthma): significant inhibitory effect
